Data reported in patent US20060009506A1, “Drugs for the treatment of neoplastic disorders” (Odyssey Thera, Inc., priority 2004, published 2006).
pIC50: −log10 of the molar value.

How the values were obtained:
A549 cells = assay: MTT proliferation assay, non-small cell lung carcinoma A549; format: cell-based, Human; settings: Tumor Cell: NSCLC (A549), concentrations tested in microM
Excerpt: (§1) We first screened compounds derived from the known pharmacopeia and from a selected natural product collection using two types of assays: (a) measurements of post-translational modifications of proteins; (b) measurements of protein-protein interactions. For the purpose of measuring post-translational modifications of proteins, we used immunofluorescence methods combined with phospho-specific antibodies. For the purpose of quantifying and localizing protein complexes we used fluorescence methods based on protein-fragment complementation assays (PCA). ‘Hits’ from the initial screens were then tested for antiproliferative activity in up to 5 different human tumor cell lines. […] For drugs with antiproliferative activity in PC-3 cells, dose-response curves were generated to determine the EC50 for antiproliferative activity and additional tumor cell lines were tested to determine the breadth of activity. Methods for assay development, validation, screening, and testing of antiproliferative activity are described below.
(§2) Cells were maintained in various media as follows: A549, LoVo and PC-3 (Ham's F12K medium with 2 mM L-glutamine and 1.5 g/L sodium bicarbonate), MIA PaCa-2 (Dulbecco's modified Eagle's medium with 4 mM L-glutamine and 4.5 g/L glucose), U87-MG (MEM+Earle's BSS). Medium for each cell line was supplemented with 10% FBS and […] Penecillin/Streptomycin. All cells were grown in incubators set at 37° C., 5% CO2. Thiazolyl Blue Tetrazolium Bromide (MTT) based proliferation assays were performed to assess the anti-proliferative activities of the compounds on these cells. Cells were seeded in 96 well plates at a density of 750 cells/well 24 hours prior to compound treatment. The cells were incubated with varying concentrations of compounds for 120 hours. […] Drug treatment was performed in 5 replicate wells. Background absorbance was established by wells containing medium but no cells. Vehicle (DMSO) only was used as control. MTT (Sigma-Aldrich, St. Louis, Mo.) was added to each well at a final concentration of 0.5 mg/ml. Following a 2 hour incubation at 37° C., medium in the wells was replaced with 0.15 ml DMSO. The plates were agitated for 15 min using a microtiter plate shaker.

MIA PaCa-2 cells = assay: MTT proliferation assay, pancreatic carcinoma MIA PaCa-2; format: cell-based; settings: Homo sapiens, Tumor Cell: Pancreatic (MIA PaCa-2), concentrations tested in microM
Excerpt: as §1, §2

cancer cells = assay: Antiproliferative activity against cancer cells (cell line not stated); format: cell-based, human; settings: general statement
Excerpt: as §1
Cells were maintained in various media as follows: A549, LoVo and PC-3 (Ham's F12K medium with 2 mM L-glutamine and 1.5 g/L sodium bicarbonate), MIA PaCa-2 (Dulbecco's modified Eagle's medium with 4 mM L-glutamine and 4.5 g/L glucose), U87-MG (MEM+Earle's BSS). Medium for each cell line was supplemented with 10% FBS and […] Penecillin/Streptomycin. All cells were grown in incubators set at 37° C., 5% CO2. Thiazolyl Blue Tetrazolium Bromide (MTT) based proliferation assays were performed to assess the anti-proliferative activities of the compounds on these cells. Cells were seeded in 96 well plates at a density of 750 cells/well 24 hours prior to compound treatment. The cells were incubated with varying concentrations of compounds for 120 hours. Compound concentrations range from 0.03 to 100 microM (half log increments) except for alpha-Tomatine (0.001-100 microM, half log increments), Neriifolin (0.0002-100 microM) and Peruvoside (0.01-100 microM). Drug treatment was performed in 5 replicate wells. Background absorbance was established by wells containing medium but no cells. Vehicle (DMSO) only was used as control. MTT (Sigma-Aldrich, St. Louis, Mo.) was added to each well at a final concentration of 0.5 mg/ml. Following a 2 hour incubation at 37° C., medium in the wells was replaced with 0.15 ml DMSO. The plates were agitated for 15 min using a microtiter plate shaker. […] Mean absorbance values were calculated from 5 replicate wells of each drug treatment following subtraction of background absorbance from blank samples and plotted as a percentage of control.

cancer pathways = assay: Screening of cancer pathways in human cells (PCA and phospho-immunofluorescence); format: cell-based; settings: cancer pathway in which the drug was active; screened at 10 micromolar, HEK293 cells
Excerpt: as §1
Immunofluorescence was performed on drug-treated cells using antibodies that specifically recognize phosphorylated forms of key signaling proteins. HEK293T cells were seeded in black-walled, poly-lysine coated 96-well plates (Greiner) at a density of 30,000/well. After 24 hours, cells in duplicate wells were treated with drugs. 100 ng/ml hEGF added to the cells during the last 5 min of drug treatment. The cells were rinsed once with PBS and fixed with 4% formaldehyde for 10 min. The cells were subsequently permeabilized with 0.25% Triton X-100 in PBS and incubated with 3% BSA for 30 min to block non-specific antibody binding. Each of the 4 sets of identically treated cells were then incubated with rabbit antibodies against phosphorylated CREB (Ser133), hsp27 (Ser82), pERK (T202/Y204) (Cell Signaling), or BSA in PBS. The cells were rinsed with PBS and incubated with Alexa488 conjugated goat anti-rabbit secondary antibody (Molecular Probes). Cell nuclei were stained with Hoechst33342 (Molecular Probes). Images were acquired using Discovery-1 High Content Imaging System (Molecular Devices). Background fluorescence due to nonspecific binding by the secondary antibody was established with the use of cells that were incubated with BSA/PBS and without primary antibodies. Fluorescence intensities were quantitated using Image J-based image analysis algorithm as described below.
Reporter fragments for PCA were generated by oligonucleotide synthesis (Blue Heron Biotechnology, Bothell, Wash.). First, oligonucleotides coding for polypeptide fragments YFP[1]and YFP[2] […] Next, PCR mutagenesis was used to generate the mutant fragments IFP[1] and IFP[2]. The IFP[1] fragment corresponds to YFP[1]-(F46L, F64L, M153T) and the IFP[2] fragment corresponds to YFP[2]-(V163A, S175G). […] The YFP[1], YFP[2], IFP[1] and IFP[2] fragments were amplified by PCR to incorporate restriction sites and a linker sequence, described below, in configurations that would allow fusion of a gene of interest to either the 5′- or 3′-end of each reporter fragment. The reporter-linker fragment cassettes were subcloned into a mammalian expression vector (pcDNA3.1Z, Invitrogen) that had been modified to incorporate the replication origin (oriP) of the Epstein Barr virus (EBV). […] Additionally, these vectors still retain the SV40 origin, allowing for episomal expression in cell lines expressing the SV40 large T antigen (e.g. HEK293T, Jurkat or COS). […] PCA fusion constructs were prepared for a large number of proteins known to participate in cellular pathways (Table 1 and Table 2). The full coding sequence for each gene of interest was amplified by PCR from a sequence-verified full-length cDNA.

Row | Structure (SMILES) | pIC50 (A549 cells; Homo sapiens, A549, 120 h) | pIC50 (MIA PaCa-2 cells; MIA PaCa-2, 120 h) | Antiproliferative activity against cancer cells (cancer cells) | Pathway Activity (cancer pathways) | pIC50 (A549 cells; 120 hours) | pIC50 (A549 cells; Homo sapiens, 120 hours) | pIC50 (MIA PaCa-2 cells; 120 hours)
1 | CN1C[C@H](CNC(=O)OCc2ccccc2)C[C@@H]2c3cccc4c3c(cn4C)C[C@H]21 [Melergoline] | 5.24 | 4.68 | substantial antiproliferative activity | invasion/metastasis |  |  | 
2 | Cc1c(N(C)C)c(=O)n(-c2ccccc2)n1C [4-dimethylaminoantipyrine] |  |  | substantial antiproliferative activity |  |  |  | 
3 | CCN(CCCCOC(=O)c1ccc(OC)c(OC)c1)C(C)Cc1ccc(OC)cc1 (stereo not shown) [Mebeverine] |  |  | substantial antiproliferative activity | invasion/metastasis |  |  | 
4 | COC(=O)Nc1nc2ccc(C(=O)c3ccccc3)cc2[nH]1 [Mebendazole] | 6.74 |  | substantial antiproliferative activity | invasion/metastasis | 6.55 |  | 
5 | CCN(CC)CCOc1ccc(C(=C(Cl)c2ccccc2)c2ccccc2)cc1 [Clomiphene] |  |  | substantial antiproliferative activity | proliferation |  |  | 
6 | CCCSc1ccc2nc(NC(=O)OC)[nH]c2c1 [Albendazole] |  |  | substantial antiproliferative activity | invasion/metastasis |  | 6.55 | 6.85
7 | CCCCCCCCNC(C)C(O)c1ccc(SC(C)C)cc1 (stereo not shown) [Suloctidil] | 6.11 | 6.74 | substantial antiproliferative activity | invasion/metastasis |  |  | 
8 | COC(=O)C1=C(C)NC(C)=C(C(=O)OCCN(C)Cc2ccccc2)C1c1cccc([N+](=O)[O-])c1 (stereo not shown) [Nicardipine] | 4.66 | 4.69 |  |  |  |  | 
9 | CO[C@H]1[C@H](O)[C@H](O[C@H]2CC[C@@]3(C=O)[C@H](CC[C@@H]4[C@@H]3CC[C@]3(C)[C@@H](C5=CC(=O)OC5)CC[C@]43O)C2)O[C@@H](C)[C@@H]1O [Peruvoside] |  |  | substantial antiproliferative activity | cell cycle |  | > 7.52 | > 7.52
10 | CC(C)COCC(CN(Cc1ccccc1)c1ccccc1)N1CCCC1 (stereo not shown) [Bepridil] | 5.32 | 5.80 | substantial antiproliferative activity | invasion/metastasis |  |  | 
11 | CC(CN1c2ccccc2Sc2ccccc21)N(C)C (stereo not shown) [Promethazine] | 4.27 | 4.65 | substantial antiproliferative activity | proliferation |  |  | 
12 | Fc1ccc(C(c2ccc(F)cc2)N2CCN(C/C=C/c3ccccc3)CC2)cc1 [Flunarizine] |  |  | substantial antiproliferative activity | invasion/metastasis |  |  | 
13 | Cc1c(NC(C)C)c(=O)n(-c2ccccc2)n1C [Ramifenazone] |  |  | substantial antiproliferative activity | invasion/metastasis |  |  | 
14 | CN(C)CCCN1c2ccccc2Sc2ccccc21 [Promazine] | 4.92 | 5.71 | substantial antiproliferative activity | proliferation |  |  | 
15 | CO[C@H]1[C@H](O)[C@H](O[C@H]2CC[C@@]3(C)[C@H](CC[C@@H]4[C@@H]3CC[C@]3(C)[C@@H](C5=CC(=O)OC5)CC[C@]43O)C2)O[C@@H](C)[C@@H]1O [Neriifolin] |  |  | substantial antiproliferative activity | invasion/metastasis |  | 8.22 | 8.52
16 | O=C(CCCN1CC=C(n2c(=O)[nH]c3ccccc32)CC1)c1ccc(F)cc1 [Droperidol] | 4.53 | 4.86 | substantial antiproliferative activity | invasion/metastasis |  |  | 
17 | COC(=O)[C@H]1[C@H]2C[C@@H]3c4[nH]c5cc(OC)ccc5c4CCN3C[C@H]2C[C@@H](OC(=O)c2cc(OC)c(OC)c(OC)c2)[C@@H]1OC [reserpine, Reserpine] |  |  | substantial antiproliferative activity |  |  |  | 
18 | Cc1c(N(C)CS(=O)(=O)[O-])c(=O)n(-c2ccccc2)n1C.[Na+] [dipyrone] |  |  | substantial antiproliferative activity |  |  |  | 
19 | CNCCCN1c2ccccc2CCc2ccccc21 [Desipramine] | 4.93 | 5.71 | substantial antiproliferative activity | proliferation |  |  | 
20 | C[n+]1cc2c3c(ccc2c2ccc4cc5c(cc4c21)OCO5)OCO3 [Sanguinarine] |  |  |  |  |  | 5.65 | 5.71
21 | Oc1ccc(Cl)cc1Cc1cc(Cl)ccc1O [Dichlorophene] | 5.01 | 4.59 | substantial antiproliferative activity | proliferation |  |  | 
22 | CN[C@H]1CC[C@@H](c2ccc(Cl)c(Cl)c2)c2ccccc21 [Sertraline] |  |  | substantial antiproliferative activity | apoptosis |  |  | 
23 | C=C1c2c(Cl)ccc(O)c2C(=O)C2=C(O)[C@]3(O)C(=O)C(C(N)=O)=C(O)[C@@H](N(C)C)[C@@H]3[C@@H](O)[C@H]12 [Meclocycline] | 4.73 | 4.17 |  |  |  |  | 
